The text below walks through data of ChEMBL document CHEMBL2034862, “Exploring the binding sites of glycogen synthase kinase 3. Identification and characterization of allosteric modulation cavities” (J Med Chem, 2011).

For test [1], the target named is T1, Glycogen synthase kinase-3 beta (Homo sapiens, UniProt P49841). As to the kind of experiment: Non-competitive inhibition of human recombinant GSK3beta using GS2 as substrate after 10 mins by Glow type luminescence analysis in presence of 1 to 50 uM ATP.
Target sequence in this assay (P49841 whole entry, looked up): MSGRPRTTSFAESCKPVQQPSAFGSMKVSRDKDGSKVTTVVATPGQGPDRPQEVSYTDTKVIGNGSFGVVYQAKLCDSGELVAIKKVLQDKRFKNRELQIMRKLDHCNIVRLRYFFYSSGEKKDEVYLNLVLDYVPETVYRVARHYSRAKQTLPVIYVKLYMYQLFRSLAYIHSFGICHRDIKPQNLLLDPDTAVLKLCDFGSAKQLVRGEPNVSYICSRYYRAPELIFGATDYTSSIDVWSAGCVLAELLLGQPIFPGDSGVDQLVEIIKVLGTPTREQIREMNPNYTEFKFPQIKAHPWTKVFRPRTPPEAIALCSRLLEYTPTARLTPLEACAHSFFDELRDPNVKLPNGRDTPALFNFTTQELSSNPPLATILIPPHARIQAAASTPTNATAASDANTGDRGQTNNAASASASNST
In test [2] the target is T1, Glycogen synthase kinase-3 beta. As to the kind of experiment: Non-competitive inhibition of human recombinant GSK3beta using GS2 as substrate after 10 mins by Glow type luminescence analysis.
Target sequence in this assay (P49841 whole entry, looked up): as above
Test [3] has the same target. Briefly: Reversible inhibition of human recombinant GSK3beta using GS2 as substrate after 10 mins by Glow type luminescence analysis.
Target sequence in this assay (P49841 whole entry, looked up): as above
Test [4] has the same target. Briefly: Non-competitive inhibition of human recombinant GSK3beta using GS2 as substrate after 10 mins by Glow type luminescence analysis in presence of 1 uM ATP.
Target sequence in this assay (P49841 whole entry, looked up): as above
Test [5] shares this target. As to the kind of experiment: Inhibition of human recombinant GSK3beta incubated for 30 mins by Kinase Glo luminescent kinase assay. (In general: In Kinase-Glo more light means more ATP remaining.)
Target sequence in this assay (P49841 whole entry): as the sequence (P49841 whole entry, looked up) above

As usually defined, the IC50 is the point on the concentration scale where inhibition reaches its midpoint.

Calls of active or inactive are those of the source. The calls are words filed in the database; no cut-off is given here.

Consider `CCCCCCCCCCCC(=O)NNC(=O)c1c(O)c2ccccc2n(CC)c1=O`, for which the inhibition result in test [1], in test [2], in test [3] and in test [4] was “Active” each time. Also, in test [5], the IC50 is 3.01 µM.
